Source: US8391959B2, “Composition for improving efficiency of drug delivery” (Tel HaShomer Medical Research Infrastructure and Services …, priority 2004, dated 2013)

System: striatum of normal Sprague-Dawley (SD) rats
Assay: Cytotoxic tissue response after CED in rat striatum, T2-weighted and diffusion-weighted MRI 24 hours post treatment
Description: The resultant solution was infused into the striatum of normal Sprague-Dawley (SD) rats (males, 250-300 grams). T1-weighted MR images were acquired immediately post treatment to assess the extent of convection. Additionally, T2-weighted and diffusion-weighted MR images were acquired 24 hours post treatment to assess the response of the tissue and its correlation to the extent of convection.
In order to obtain a wide range in volumes of distribution, the infusion times were varied between 17 to 60 minutes. 13 rats were treated with Carboplatin (4 mg/ml, 17 minutes infusion). In order to obtain a wide range in volumes of distributions, in 6 out of those, the composition viscosity was increased by adding sucrose to the solution prior to infusion (Carboplatin 4 mg/ml, sucrose concentration-12%).
Early assessment of tissue response was performed using diffusion-weighted and T2-weighted MR images. The diffusion-weighted images were obtained by acquiring conventional T2-weighted images with the addition of diffusion-weighting gradients that filter out the signal from high mobility water molecules and sensitize the MR images to molecular diffusion/mobility [Stejskal et al. supra]. Regions of accumulated liquids or severe necrosis appear dark in diffusion-weighted MRI, while regions of slow water accumulation, such as in the case of intracellular water accumulation or inflammation, appear brighter.
The diffusion-weighted and T2-weighted MR images were obtained by a General Electric™ 3.0 T MRI machine with 10.4M 1× operating system, gradients intensity of up to 4.3 Gauss/cm and line scan diffusion-weighted imaging [Gudbjartsson et al., “Line scan diffusion imaging”, Magn. Reson. Med. 36:509-519, 1996] acquisition software package. Specially designed animal volume coils of 5 cm diameter were used for data acquisition.
The T2-weighted fast spin echo (FSE) MR images were acquired with: 256×128 matrix, FOV=12×9 cm^2, TR=3000 ms, TE=90 ms, and 2 mm slices with 0.5 mm gap. […]

SMILES	enhancement in diffusion-weighted MR images (cases of efficient convection, 24 hours post treatment)	histology of en block-resected lesion from rat brain (rat, in vivo)	tissue toxicity (rat, in vivo)
N.N.O=C([O-])C1(C(=O)[O-])CCC1.[Pt+2] [Carboplatin]	significant enhancement		
CC(=O)O[C@H]1C(=O)[C@@]2(C)[C@H]([C@H](OC(=O)c3ccccc3)[C@]3(O)C[C@H](OC(=O)[C@H](O)[C@@H](NC(=O)c4ccccc4)c4ccccc4)C(C)=C1C3(C)C)[C@]1(OC(C)=O)CO[C@@H]1C[C@@H]2O [Taxol®, Taxol]		Severe damage covering most of the striatum is seen with widespread necrosis and early gliotic changes	severe tissue toxicity
